The values below come from patent US11993664B2, “Crystalline form of compound and uses thereof in medicine” (priority 2018, dated 2024).

Several values for one entry are separate records, joined by “and”; a condition that tells them apart may be missing. Equal values may be shown once. Read-outs that look alike come from different tables or passages of the source.

Data set [1] is described as follows: physchem. Type of data set: physicochemical. As to conditions: water, thermodynamic from solid. On the procedure:
Agilent 1100 HPLC was utilized to measure solubility and purity, method listed in Table 4 and Table 5, respectively.
Solubility of the crystalline form A was estimated in six solvents at RT. Approximately 2 mg of solids were weighed into each 3-mL glass vial, to which each of the solvents in Table 8 was added in increments of 100 μL until the solids dissolved completely or the total volume reached 2 mL.

The nature of data set [2]: Heating experiments with HPLC purity of heated samples. The class given is physicochemical. Here is the method:
Agilent 1100 HPLC was utilized to measure solubility and purity, method listed in Table 4 and Table 5, respectively. To figure out if a different crystal form of freebase existed at elevated temperature as shown by two endothermic peaks in DSC curve in FIG. 2, heating experiments of the crystalline form A were conducted and HPLC purity of heated samples was also detected. […] Also, lower purity at 150° C. compared with 160° C. was speculated to be related to increasing isothermal time.

A short description of data set [3]: Stress testing under high temperature (60° C.). Type of data set: physicochemical. The note with it: for Purity / Change of purity in the high temperature test: 60° C.
Data set [4] in a line: Stress testing under high photolysis (4500 Lux). The class given is physicochemical.
Details of data set [5]: species or system beagle dogs. The note with it: dog. Here is the method: Pharmacokinetic test of compounds in beagle dogs (weigh: 10-12 kg, male, age: 10-12 months, three members in each oral group and intravenous group) was shown as follows.
Beagle dogs received test compounds at a dose of 2.5 mg/kg or 5 mg/kg by oral gavage or at a dose of 1 mg/kg or 2 mg/kg by intravenous injection.
Blood samples of vein were taken at 0.083, 0.25, 0.5, 1, 2, 4, 6, 8 and 24 hours after the administration, and collected in anticoagulation tube with EDTA-K2. The test compounds were extracted from plasma samples by liquid-liquid extraction. Then quantitative analysis was performed on a triple-quadrupole tandem mass spectrometer using multiple reaction monitoring (MRM). Pharmacokinetic parameters were calculated using a noncompartmental method by WinNonLin 6.3 software.

Details of data set [6]: species or system ICR mice. The note with it: mouse. Here is the method:
Pharmacokinetic test of compounds in mice (weigh: 20-25 g, male, age: 45-60 days, three members in each oral group and intravenous group) was shown as follows.
ICR mice received test compounds at a dose of 10 mg/kg by oral gavage or at a dose of 2 mg/kg or 10 mg/kg by tail intravenous injection. Blood samples of orbital vein were taken at 0.083, 0.25, 0.5, 1, 2, 4, 6, 8 and 24 hours after the administration, and collected in anticoagulation tube with EDTA-K2. The test compounds were extracted from plasma samples by liquid-liquid extraction. Then quantitative analysis was performed on a triple-quadrupole tandem mass spectrometer using multiple reaction monitoring (MRM). Pharmacokinetic parameters were calculated using a noncompartmental method by WinNonLin 6.1 software.

Details of data set [7]: species or system SD rats. As to conditions: rat. On the procedure:
Pharmacokinetic test of compounds of the invention in SD rats (weigh: 200-250 g, male, age: 2-3 months, three members in each oral group and intravenous group) was shown as follows. Rats received test crystal form A at a dose of 2.5 mg/kg or 5 mg/kg by oral gavage or at a dose of 1 mg/kg by intravenous injection. Blood samples of vein were taken at 0.083, 0.25, 0.5, 1, 2, 5, 7 and 24 hours after the administration, and collected in anticoagulation tube with EDTA-K2. The test compounds were extracted from plasma samples by liquid-liquid extraction. Then quantitative analysis was performed on a triple-quadrupole tandem mass spectrometer using multiple reaction monitoring (MRM). Pharmacokinetic parameters were calculated using a noncompartmental method by WinNonLin 6.3 software.

Data set [8] concerns con 1b derived bi-cistronic replicon. Kind of data set: HCV replicon assay, con 1b bi-cistronic replicon. The class given is cell-based. The note with it: Hepatitis C virus, LUC endpoint, 72 hours. The text has this:
(§1) The purpose of this study was to assess the potential anti-HCV activity of SCY-635 (free base crystalline form A) in the well-characterized genotype-1 replicon. The first reproducible HCV replication system in cell culture (Huh7 hepatoma cell line) was reported in 1999 (Lohmann et al., 1999). The assay utilizes bi-cistronic subgenomic viral RNAs, or replicons, that encode nonstructural proteins and have the cis RNA elements required for autonomous replication. Replicons are self-replicating RNA molecules that contain all of the nucleotide sequences required for HCV replication, transcription, and translation, but are not infectious.
(§2) SCY-635 (free base crystalline form A) was studied in the HCV Replicon assay to evaluate its ability to inhibit HCV genomic replication. […]
(§3) The compound was dissolved in dimethyl sulfoxide (DMSO) and diluted into culture medium at five half-log concentrations, ranging from either 0.02 to 2.0 μM (for SCY-635), or 0.2 to 20 μM (for CsA). […] EC50 and EC90 values were derived from HCV RNA levels assessed as HCV RNA replicon derived LUC activity. […] IC50 and IC90 values were calculated using a colorimetric assay as an indication of cell numbers and cytotoxicity. […]
(Replicon systems follow genome replication, usually without infectious particles.)

The subject of data set [9] is con 1b derived full length replicon. Kind of data set: HCV replicon assay, con 1b full length replicon. The class given is cell-based. The note with it: Hepatitis C virus.
The test system of data set [10] is H77 replicon (genotype 1a). Kind of data set: HCV replicon assay, H77 replicon. The class given is cell-based. The note with it: Hepatitis C virus.
From the text: as §1, §2, §3

For data set [11], the system named is human hepatoma cell line ET (lub ubi neo/ET). Kind of data set: Cytotoxicity in the replicon assay (colorimetric assay of cell numbers). The note with it: replicon cells, 72 hours.
From the text: SCY-635 (free base crystalline form A) was examined in the human hepatoma cell line ET (lub ubi neo/ET), an HCV RNA replicon containing a stable luciferase (LUC) reporter. The HCV RNA replicon ET contains the 5′ end of HCV (with the HCV Internal Ribosome Entry Site (IRES) and the first few amino acids of the HCV core protein) which drives the production of a firefly luciferase (LUC), ubiquitin, and neomycin phosphotransferase (NeoR) fusion protein. Ubiquitin cleavage releases the LUC and NeoR proteins. The EMCV IRES element controls the translation of the HCV […] NS3-NS5. The NS3 protein cleaves the HCV polyprotein to release the mature NS3, NS4A, NS4B, NS5A and NS5B proteins that are required for HCV replication. The 3′ end of the replicon contains the authentic 3′ NTR of HCV. […]
as §3

For data set [12] the following is noted: monkey, in vivo.
For data set [13] the following is noted: in vivo.
Data set [14] has as its target cyclophilin A (Homo sapiens, UniProt P62937). As to conditions: background statement; cited from earlier work.
[15] abbreviates: heated to 150 °C, isothermal 20 min.
[16] abbreviates: heated to 160 °C, isothermal 3 min.
The mark [17] stands for this setting: heated to 170 °C, isothermal 2 min.
[18] abbreviates: heated to 180 °C, isothermal 3 min.
The mark [19] stands for this setting: day 0, listed as The crystalline form A of SCY-635 free base.
[20] abbreviates: listed as crystalline form A of SCY-635 free base.

cyclophilin A, sequence (P62937 whole entry, species assumed): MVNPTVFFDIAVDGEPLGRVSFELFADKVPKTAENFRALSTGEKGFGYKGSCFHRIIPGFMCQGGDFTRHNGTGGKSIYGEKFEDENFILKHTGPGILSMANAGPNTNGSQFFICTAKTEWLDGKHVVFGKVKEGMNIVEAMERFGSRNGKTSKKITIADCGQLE

Broadly, the solubility is how much of the substance goes into solution per volume. The low end stands for a poorly soluble substance, the high end for a readily soluble substance. What is called EC50 is the concentration that produces a half-maximal response. The low end stands for greater potency, the high end for weaker potency. By EC90 is commonly meant the point of the concentration-response curve where the effect stands at 90%. Higher therefore signals weaker potency. In [1], `C/C=C/C[C@@H](C)[C@@H](O)[C@H]1C(=O)N[C@@H](CC)C(=O)N(C)[C@H](SCCN(C)C)C(=O)N(C)[C@@H](CC(C)(C)O)C(=O)N[C@@H](C(C)C)C(=O)N(C)[C@@H](CC(C)C)C(=O)N[C@@H](C)C(=O)N[C@H](C)C(=O)N(C)[C@@H](CC(C)C)C(=O)N(C)[C@@H](CC(C)C)C(=O)N(C)[C@@H](C(C)C)C(=O)N1C` [SCY-635 free base crystalline form A, (3 S,6S,9S,12R,15S,18S,21S,24S,27R,30S,33S)-27-((2-(dimethylamino)ethyl)thio)-30-ethyl-33-((1R,2R,E)-1-hydroxy-2-methylhex-4-en-1-yl)-24-(2-hydroxy-2-methylpropyl)-6,9,18-triisobutyl-3,21-diisopropyl-1,4,7,10,12,15,19,25,28-nonamethyl-1,4,7,10,13,16,19,22,25,28,31-undecaazacyc lotritriacontan-2,5,8,11,14,17,20,23,26,29,32-undecaone] had a solubility of less than 1.1 mg/mL. Also, the Appearance entry in data set [2] (setting [15]), in data set [2] (setting [16]), in data set [2] (setting [17]) and in [2] (setting [18]) was “Liquated” each time. Also, the Purity in data set [2] (setting [15]) is 95.6 Area %; in data set [2] (setting [16]), 97.6 Area %; in data set [2] (setting [17]), 94.3 Area %; in data set [2] (setting [18]) it was 88.3 Area %; in [2] (starting material, not heated), 100.0 Area %; in [3] (setting [19]), 98.0%. The Purity was 98.1% in data set [3] (day 10, listed as The crystalline form A of SCY-635 free base); 98.0% in data set [3] (day 30); 98.0% in [4] (setting [19]); 98.0% in data set [4] (day 30). Moreover, in [2] (heated to 160° C.), the “Solid form after heating (XRPD)” value is “converted to be amorphous”. Moreover, in data set [3] (setting [20]), the “Change of purity in the high temperature test” value is “not changed”. Moreover, the “Total impurity and major impurities in stress testing” value in [3] (high temperature and photolysis conditions) was “did not increase”. Also, the “Change of purity in the high photolysis test” value in data set [4] (setting [20]) was “not changed”. In addition, the “Pharmacokinetic properties in vivo” value in data set [5], in data set [6] and in data set [7] was “better pharmacokinetic properties” throughout. For the same compound, the Oral bioavailability result in [5] (in vivo, po) was “orally bioavailable”; in [6] (in vivo, po) it was “orally bioavailable”; in data set [7] (in vivo, po), “orally bioavailable”; in data set [12] it was “orally bioavailable”; in data set [13] (human, po) it was “orally bioavailable”. In addition, the EC50 in [8] is 100 nM and 0.132 µg/mL; in [9] it was 170 nM and 0.225 µg/mL; in data set [10], 0.198 µg/mL and 150 nM. Besides, the EC90 in data set [8] was 350 nM and 0.463 µg/mL; in [9], 690 nM and 0.912 µg/mL; in [10] it was 1.38 µM and 1.82 µg/mL. For the same compound, the “Cell cytotoxicity in the replicon assay” value in data set [11] is reported as “absence of cell cytotoxicity”. In data set [13], the Pharmacokinetic behavior entry is “dose-dependent pharmacokinetic behavior”.

Consider `C/C=C/C[C@@H](C)[C@@H](O)[C@H]1C(=O)N[C@@H](CC)C(=O)N(C)[C@H](SCCN(C)C)C(=O)N(C)[C@@H](CC(C)(C)O)C(=O)N[C@@H](C(C)C)C(=O)N(C)[C@@H](CC(C)C)C(=O)N[C@@H](C)C(=O)N[C@H](C)C(=O)N(C)[C@@H](CC(C)C)C(=O)N(C)[C@@H](CC(C)C)C(=O)N(C)[C@@H](C(C)C)C(=O)N1C` [SCY-635], for which the “Concentration inhibiting peptidyl prolyl isomerase (PPlase) catalytic activity” value in [14] was “low nanomolar”.

Turning to `C/C=C/C[C@@H](C)[C@@H](O)[C@H]1C(=O)N[C@@H](CC)C(=O)N(C)[C@H](SCCN(C)C)C(=O)N(C)[C@@H](CC(C)(C)O)C(=O)N[C@@H](C(C)C)C(=O)N(C)[C@@H](CC(C)C)C(=O)N[C@@H](C)C(=O)N[C@H](C)C(=O)N(C)[C@@H](CC(C)C)C(=O)N(C)[C@@H](CC(C)C)C(=O)N(C)[C@@H](C(C)C)C(=O)N1C` [The amorphous form of SCY-635 free base], in [3], the “Change of purity in the high temperature test” value is “continued to decrease”. In addition, the Purity is on record as 98.2% in [3] (day 0); 97.9% in data set [3] (day 10); 97.7% in data set [3] (day 50); 98.2% in data set [4] (day 0); 98.1% in data set [4] (day 10); 98.0% in [4] (day 50). Further, the “Change of purity in the high photolysis test” value in [4] is reported as “continued to decrease”.
